US5955337A, “DNA encoding GLS1” (Merck & Co., Inc., priority 1996, dated 1999)
Where two headings read alike, the source gives them in different places. *1 amine or outer side, *2 acyl side, *3 side chain or, on linkers, in order; H or OH if unused. Where a SMILES comes first, the peptide text is derived from it. Bridges are numbered along the chain shown (N, C = ends). [ ]: non-standard residue; d: D form. The star is where a group is joined. dOrn(4R-OH,5R-OH) = O=C([C@@H](C[C@@H](O)[C@@H](O)N[*:3])N[*:1])[*:2]; Tetradecanoyl(10R,12S-Me2) = CC[C@H](C)C[C@H](C)CCCCCCCCC(=O)*; hTyr(3S-OH,4S-OH) = N[C@H](C(=O)O)[C@H](O)[C@@H](O)c1ccc(O)cc1; Pro(3S-OH,4S-Me) = C[C@H]1CN[C@H](C(=O)O)[C@H]1O; Gln(3R-OH) = NC(=O)C[C@@H](O)[C@H](N)C(=O)O; Hyp = O=C(O)[C@@H]1C[C@@H](O)CN1

Key:
[1] = tested on: X2180 (WT); experiment: Zone of growth inhibition assay, wild-type strain; format: cell-based, Saccharomyces cerevisiae; settings: μg/Disc: L,733-560 20; L-688-786 10; Aculeacin 50; Papulacandin 50; Nikkomycin Z 10; Rapamycin 12.5
Text: (§1) Mutations of the GLS1 gene, including but not limited to gls1-1 (strain MS1), gls1-2 (strain MS41) and gls1-3 (strain MS43), or disruptions or deletions of GLS1, are useful for screening for glucan synthase inhibitors. Such a screen relies on the increase in echinocandin-resistance and in papulacandin sensitivity of such mutants compared to an GLS1 wild-type strain. Any technique capable of detecting this difference in sensitivity can be used. A zone of inhibition assay on agar plates is particularly useful.
(§2) The GLS1 and the fks1-4 mutants can be incorporated into an assay to screen and classify antifungal compounds with chitin and glucan synthase inhibitory effects, based on their differential resistance/sensitivity to the echinocandins, papulacandin and Nikkomycin Z. The data from this assay and the sizes of the zones of growth inhibition in millimeter is given in the following table: […]

[2] = tested on: MS1 (gls1-1); experiment: Zone of growth inhibition assay, gls1-1 mutant; format: cell-based, Saccharomyces cerevisiae; settings: μg/Disc: L,733-560 20; L-688-786 10; Aculeacin 50; Papulacandin 50; Nikkomycin Z 10; Rapamycin 12.5
Text: as §1, §2

[3] = tested on: MS14 (fks1-4); experiment: Zone of growth inhibition assay, fks1-4 mutant; format: cell-based, Saccharomyces cerevisiae; settings: μg/Disc: L,733-560 20; L-688-786 10; Aculeacin 50; Papulacandin 50; Nikkomycin Z 10; Rapamycin 12.5
Text: as §1, §2

[4] = target: T1, 1,3-β-glucan synthase (Saccharomyces cerevisiae, UniProt P06780); experiment: biochemical
T1 construct: Membrane extracts were prepared from mutant and wild-type cells grown to logarithmic phase; endogenous in cells; host or cells: S. cerevisiae X2180-1A (wild-type) and MS1 (gls1-1 mutant), washed 100,000×g membrane pellet
Protocol: Membrane extracts were prepared from mutant and wild-type cells grown to logarithmic phase (Kang and Cabib, PNAS, 83, 5808-5812, 1986). After homogenization with glass beads, unbroken cells and debris were removed by low speed centrifugation (1,000×g for 5 min). The supernatant fluids were centrifuged at 100,000×g for 60 min, and the resulting pellets were washed with 2.5 ml (per gram of wet cells) of buffer containing 0.05 M potassium phosphate (pH 7.5), 0.5 mM DTT, and 1.0 mM PMSF. The washed pellet was resuspended in the same buffer containing 5% glycerol. This protein extract served as the source for both 1,3-β-glucan synthase and the chitin synthases utilized in the enzymatic assays.
Protein concentrations were determined using BCA protein assay reagent kit (Pierce Corp.), utilizing bovine serum album (BSA; Pierce Corp.) as a standard. The 1,3-β-glucan synthase reactions were performed as previously described (Cabib, E., and M. S. Kang. 1987. Fungal 1,3-b-glucansynthase, Methods Enzymol. 138: 637-642). Briefly, an […] reaction contained 125 mM Tris HCL (pH7.5), 0.25 mM dithiothretol, 30 mM KF, 0.3 M glycerol, 0.23% BSA, 0.125 mM PMSF, 2 mM UDP-glucose, […] guanosine 5'-(g-thio) triphosphate (GTPγS), 0.1 nmol UDP-[^3 H] glucose (Amersham; 4.5 Ci/mmol;) plus […] of membrane protein extract. The reactions were performed in the presence of 0.0, 0.1, 0.5, 5, 25 and 50 mM L, 733-560 for dose titration of the drug. Following incubation at 25° C. for 150 minutes, the [^3 H]-glucose incorporated into trichloroacetic acid-insoluble material was collected onto glass fiber filters (102×258 mm) and measured using a betaplate liquid scintillation counter (Cambridge Technologies Inc.; series 2800 harvester) at 25% efficiency. The product of such reactions was verified by solubilization by laminarinase (Sigma, #L9259) but not by α-amylase (Sigma, #A2643).
To study activation of 1,3-β-glucan synthesis by GTPγS incorporation of UDP-glucose into 1,3-β-D glucans, in absence and in presence of 3.3 uM GTPγS was measured. […]

[5] = tested on: Strain MS1 (gls1-1 mutant); experiment: Effect of antifungal drugs on strain MS1 relative to wild-type parental strain; format: cell-based, Saccharomyces cerevisiae; settings: FIG. 2, FIG. 10
Protocol: To quantitate the echinocandin sensitivity/resistance of the mutant strains, yeast cells grown to log phase were inoculated into 2 ml SC broth and incubated overnight at 28° C. A flat bottom 96-well microtiter plate was seeded with 75 μl of SC medium in columns 2 through 12. To column 1, 150 μl medium was added. Echinocandin (L-733,560) was prepared at a concentration of 30 μg/ml solution in sterile distilled water. An aliquot (75 μl) of echinocandin solution was added to column 3, and 75 μl from column 3 was transferred to column 4, followed by mixing of the contents of each well. 75 μl from column 4 was transferred into column 5, and the serial dilution was carried on to column 12 from which a 75 μl was discarded. A dilution of 6×10^5 cells/ml in URA drop out medium was prepared from the yeast strains. 75 μl cell suspension was then added to columns 2 through 12 giving 4.5×10^4 cells/well. The plates were incubated at 28° C. for 24-48 hr. Growth in the presence and absence of echinocandin was measured by absorbance at 600 nm.

[6] = tested on: Pneumocystis carinii; settings: rat model of P. carinii pneumonia; Schmatz et al. 1990; cited from earlier work
[7] = tested on: fks1-4 mutant (strain MS14); experiment: Resistance/sensitivity of fks1-4 mutant relative to wild-type; format: cell-based, Saccharomyces cerevisiae; settings: fks1-4 mutant vs wild-type
Text: as §2

T1 sequence (P38631 whole entry): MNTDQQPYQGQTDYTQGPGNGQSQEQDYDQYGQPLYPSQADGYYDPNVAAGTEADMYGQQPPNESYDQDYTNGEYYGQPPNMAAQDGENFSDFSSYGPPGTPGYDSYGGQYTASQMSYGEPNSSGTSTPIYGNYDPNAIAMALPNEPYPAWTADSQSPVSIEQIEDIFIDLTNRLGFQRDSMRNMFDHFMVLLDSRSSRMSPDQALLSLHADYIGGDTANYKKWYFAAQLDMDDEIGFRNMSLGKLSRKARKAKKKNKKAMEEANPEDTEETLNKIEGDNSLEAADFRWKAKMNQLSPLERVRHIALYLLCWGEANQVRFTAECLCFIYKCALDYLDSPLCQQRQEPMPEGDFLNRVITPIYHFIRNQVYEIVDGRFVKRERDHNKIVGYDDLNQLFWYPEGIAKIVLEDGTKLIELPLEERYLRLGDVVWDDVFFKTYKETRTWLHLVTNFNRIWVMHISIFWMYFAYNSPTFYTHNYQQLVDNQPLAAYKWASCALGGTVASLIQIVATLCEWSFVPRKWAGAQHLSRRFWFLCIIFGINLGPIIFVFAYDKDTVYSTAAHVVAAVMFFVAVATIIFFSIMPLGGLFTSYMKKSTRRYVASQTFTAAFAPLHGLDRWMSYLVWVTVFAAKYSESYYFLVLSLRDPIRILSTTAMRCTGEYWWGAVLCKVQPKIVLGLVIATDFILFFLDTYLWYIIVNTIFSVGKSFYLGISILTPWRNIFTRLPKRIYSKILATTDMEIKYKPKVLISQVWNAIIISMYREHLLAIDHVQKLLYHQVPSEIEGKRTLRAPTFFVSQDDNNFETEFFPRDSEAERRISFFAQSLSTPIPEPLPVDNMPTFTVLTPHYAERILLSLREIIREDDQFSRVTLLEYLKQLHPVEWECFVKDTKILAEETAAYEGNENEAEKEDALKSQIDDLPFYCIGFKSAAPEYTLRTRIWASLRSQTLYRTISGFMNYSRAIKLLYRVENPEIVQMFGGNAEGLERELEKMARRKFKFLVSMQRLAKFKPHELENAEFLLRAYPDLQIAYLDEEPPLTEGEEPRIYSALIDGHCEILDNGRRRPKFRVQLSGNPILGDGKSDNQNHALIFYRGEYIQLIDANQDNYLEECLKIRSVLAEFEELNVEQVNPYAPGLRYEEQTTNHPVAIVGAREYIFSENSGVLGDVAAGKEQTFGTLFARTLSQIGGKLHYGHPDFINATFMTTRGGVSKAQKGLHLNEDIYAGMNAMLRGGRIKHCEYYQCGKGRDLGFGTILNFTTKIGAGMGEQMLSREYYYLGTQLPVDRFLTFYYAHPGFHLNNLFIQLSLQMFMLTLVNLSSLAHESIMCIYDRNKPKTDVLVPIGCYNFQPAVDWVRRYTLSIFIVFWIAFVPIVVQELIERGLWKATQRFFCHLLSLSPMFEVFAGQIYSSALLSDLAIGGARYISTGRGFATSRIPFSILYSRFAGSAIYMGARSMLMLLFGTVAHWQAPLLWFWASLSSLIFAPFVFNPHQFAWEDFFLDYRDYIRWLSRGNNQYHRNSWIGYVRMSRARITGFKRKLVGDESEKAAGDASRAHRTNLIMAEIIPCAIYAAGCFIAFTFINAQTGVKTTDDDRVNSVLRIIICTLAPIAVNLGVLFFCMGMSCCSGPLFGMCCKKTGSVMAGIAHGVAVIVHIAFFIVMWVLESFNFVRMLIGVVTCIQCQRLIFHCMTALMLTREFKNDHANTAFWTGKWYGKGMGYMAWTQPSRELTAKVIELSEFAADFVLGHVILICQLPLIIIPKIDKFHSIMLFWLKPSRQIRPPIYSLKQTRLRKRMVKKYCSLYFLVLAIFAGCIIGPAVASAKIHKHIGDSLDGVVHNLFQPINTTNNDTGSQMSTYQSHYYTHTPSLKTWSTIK
T1 sequence (P06780 2-206): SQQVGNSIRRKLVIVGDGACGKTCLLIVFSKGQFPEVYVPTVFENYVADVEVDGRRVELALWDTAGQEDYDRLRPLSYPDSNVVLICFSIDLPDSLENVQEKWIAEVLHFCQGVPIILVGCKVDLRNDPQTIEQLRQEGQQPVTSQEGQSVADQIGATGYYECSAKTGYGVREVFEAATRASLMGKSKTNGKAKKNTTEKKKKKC

Compound | size of the zone of growth inhibition, X2180 (WT) [1] | size of the zone of growth inhibition, MS1 (gls1-1) [2] | size of the zone of growth inhibition, MS14 (fks1-4) [3] | response of MS1 mutant enzymatic activity to increasing concentrations of GTPγS ([4]; MS1 mutant membranes, FIG. 5) | fold induction at 3.3 µM ([4]; read-out: stimulation of glucan synthesis by GTPγS, MS1 mutant enzyme) | fold induction at 3.3 µM ([4]; read-out: stimulation of glucan synthesis by GTPγS, first value) | sensitivity/resistance of MS1 cells compared with wild-type parental strain [5] | reduction of the number of cysts in the lungs of infected rats [6] | fold more sensitive than wild-type, fks1-4 mutant (MS14) [7]
Aculeacin | 15 millimeter | 9 millimeter | 0.0 millimeter |  |  |  |  |  | 
Nc1nc2c(ncn2[C@@H]2O[C@H](COP(=O)(O)OP(=O)(O)OP(O)(O)=S)[C@@H](O)[C@H]2O)c(=O)[nH]1 [GTPγS, guanosine 5'-(g-thio) triphosphate] |  |  |  | responded rather poorly | 6 | ~19 |  |  | 
CCC(O)/C=C/C=C/C=C/C(=O)OC[C@H]1O[C@@H](O[C@H]2[C@H](OC(=O)/C=C/C=C/CC(O)/C(C)=C/C=C/CCC(C)CC)[C@@H](O)[C@@]3(OCc4cc(O)cc(O)c43)O[C@@H]2CO)[C@H](O)[C@@H](O)[C@H]1O (stereo partly shown) [Papulacandin] | 10 millimeter | 20 millimeter | 10 millimeter |  |  |  | more sensitive |  | 
CC[C@H](C)C[C@H](C)CCCCCCCCC(=O)N[C@@H]1C[C@@H](O)[C@@H](O)NC(=O)[C@@H]2[C@@H](O)[C@@H](C)CN2C(=O)[C@H]([C@H](O)CC(N)=O)NC(=O)[C@H]([C@H](O)[C@@H](O)c2ccc(O)cc2)NC(=O)[C@@H]2C[C@@H](O)CN2C(=O)[C@H]([C@@H](C)O)NC1=O [L-671,329] ({Tetradecanoyl(10R,12S-Me2)}-[dOrn(4R-OH,5R-OH)]T[Hyp][hTyr(3S-OH,4S-OH)][Gln(3R-OH)][Pro(3S-OH,4S-Me)]; lactam 1-C) |  |  |  |  |  |  |  | effective in reducing the number of cysts | 
C[C@@H]([C@H](N)C(=O)N[C@H](C(=O)O)[C@H]1O[C@@H](n2ccc(=O)[nH]c2=O)[C@H](O)[C@@H]1O)[C@H](O)c1ccc(O)cn1 [Nikkomycin Z] | 0.0 millimeter | 0.0 millimeter | 30.0 millimeter |  |  |  |  |  | 1000 fold
CO[C@H]1C[C@@H]2CC[C@@H](C)[C@@](O)(O2)C(=O)C(=O)N2CCCC[C@H]2C(=O)O[C@H]([C@H](C)C[C@@H]2CC[C@@H](O)[C@H](OC)C2)CC(=O)[C@H](C)/C=C(\C)[C@@H](O)[C@@H](OC)C(=O)[C@H](C)C[C@H](C)/C=C/C=C/C=C/1C [Rapamycm, rapamycin] | 0.0 millimeter | 13 millimeter | 0.0 millimeter |  |  |  | more sensitive |  | 
